Source: ChEMBL document CHEMBL3593202, “Design, Synthesis, and Characterization of 3-(Benzylidene)indolin-2-one Derivatives as Ligands for α-Synuclein Fibrils” (J Med Chem, 2015)
Calls of active or inactive are those of the source. The calls are words filed in the database; no cut-off is given here.

Legend:
[1] = target: T1, Amyloid-beta precursor protein (Homo sapiens, UniProt P05067); test: Displacement of Thio-T from synthetic amyloid beta (1 to 42) (unknown origin) after 1.5 hrs by fluorescence assay
T1 sequence (P05067 whole entry): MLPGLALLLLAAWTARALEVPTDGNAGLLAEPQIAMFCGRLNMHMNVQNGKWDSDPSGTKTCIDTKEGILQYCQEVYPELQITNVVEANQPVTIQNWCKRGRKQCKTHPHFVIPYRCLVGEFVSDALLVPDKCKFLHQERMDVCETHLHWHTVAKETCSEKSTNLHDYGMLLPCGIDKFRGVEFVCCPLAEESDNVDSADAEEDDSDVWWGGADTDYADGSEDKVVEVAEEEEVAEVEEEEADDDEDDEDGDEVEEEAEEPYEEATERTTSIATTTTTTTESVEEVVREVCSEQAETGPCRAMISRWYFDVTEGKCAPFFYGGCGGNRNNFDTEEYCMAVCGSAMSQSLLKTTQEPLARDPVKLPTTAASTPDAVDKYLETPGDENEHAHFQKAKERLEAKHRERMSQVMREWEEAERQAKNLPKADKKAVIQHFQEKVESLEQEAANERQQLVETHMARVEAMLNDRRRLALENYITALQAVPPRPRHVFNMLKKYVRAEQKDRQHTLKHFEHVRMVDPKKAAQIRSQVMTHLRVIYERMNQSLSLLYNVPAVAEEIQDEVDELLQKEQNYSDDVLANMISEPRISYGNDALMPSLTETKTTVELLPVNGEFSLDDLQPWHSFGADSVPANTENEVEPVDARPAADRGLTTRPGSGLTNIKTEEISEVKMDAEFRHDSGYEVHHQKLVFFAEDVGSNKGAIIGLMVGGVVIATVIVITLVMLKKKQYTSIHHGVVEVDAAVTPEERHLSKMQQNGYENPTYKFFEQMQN

Alpha-synuclein [2] = target: T2, Alpha-synuclein (Homo sapiens, UniProt P37840); test: Displacement of Thio-T from recombinant alpha-synuclein (unknown origin) expressed in Escherichia coli after 1.5 hrs by fluorescence assay
[3] = target: T3, Microtubule-associated protein tau (Homo sapiens, UniProt P10636); test: Displacement of Thio-T from human recombinant tau (243 to 375) expressed in Escherichia coli BL21(DE3)RIL after 1.5 hrs by fluorescence assay
T3 sequence (P10636 whole entry): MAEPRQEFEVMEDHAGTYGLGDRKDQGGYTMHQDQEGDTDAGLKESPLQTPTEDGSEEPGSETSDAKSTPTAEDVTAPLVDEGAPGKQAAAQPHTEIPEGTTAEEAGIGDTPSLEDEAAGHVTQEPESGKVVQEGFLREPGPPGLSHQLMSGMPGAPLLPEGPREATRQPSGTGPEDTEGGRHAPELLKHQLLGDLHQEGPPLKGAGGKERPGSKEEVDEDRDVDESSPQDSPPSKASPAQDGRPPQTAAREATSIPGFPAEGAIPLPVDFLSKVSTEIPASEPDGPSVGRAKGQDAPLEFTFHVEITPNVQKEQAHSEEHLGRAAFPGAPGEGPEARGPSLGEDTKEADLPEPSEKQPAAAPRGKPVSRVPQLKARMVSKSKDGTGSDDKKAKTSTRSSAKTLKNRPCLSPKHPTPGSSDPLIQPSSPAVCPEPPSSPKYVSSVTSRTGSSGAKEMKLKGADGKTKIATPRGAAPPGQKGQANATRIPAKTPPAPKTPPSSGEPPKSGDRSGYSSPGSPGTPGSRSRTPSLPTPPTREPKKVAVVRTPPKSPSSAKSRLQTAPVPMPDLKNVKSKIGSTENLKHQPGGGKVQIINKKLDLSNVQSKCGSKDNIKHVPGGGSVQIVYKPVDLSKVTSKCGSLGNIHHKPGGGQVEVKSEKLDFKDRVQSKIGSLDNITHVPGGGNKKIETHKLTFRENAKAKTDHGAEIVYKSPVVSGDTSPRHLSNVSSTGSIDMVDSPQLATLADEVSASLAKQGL

[4] = target: T1, Amyloid-beta precursor protein; test: Binding affinity to amyloid beta in alzheimer's diseased human brain tissue at 5 uM after 20 mins by fluorescence microscopic analysis
[5] = target: T1, Amyloid-beta precursor protein; test: Binding affinity amyloid beta (1 to 42) (unknown origin) expressed in Escherichia coli after 1 hr by scintillation counting
Alpha-synuclein [6] = target: T2, Alpha-synuclein; test: Binding affinity to recombinant alpha-synuclein (unknown origin) expressed in Escherichia coli after 1 hr by scintillation counting
[7] = target: T3, Microtubule-associated protein tau; test: Binding affinity human recombinant tau (243 to 375) expressed in Escherichia coli BL21(DE3)RIL after 1 hr by scintillation counting
[8] = Lipophilicity, log P of the compound; type: physicochemical; details: octanol/water

Activity [4] | Structure (SMILES) | Ki [1] [µM] | Ki (Alpha-synuclein [2]) [µM] | Ki [3] [µM] | Kd [5] [µM] | Kd (Alpha-synuclein [6]) [µM] | Kd [7] [µM] | logP [8]
– | O=C1/C(=C/c2ccc([N+](=O)[O-])cc2)c2ccccc2N1Cc1ccccc1 | 0.695 | 0.959 | 1.41 | – | – | – | –
– | O=C1Nc2ccccc2/C1=C\c1ccc([N+](=O)[O-])cc1 | 0.439 | 0.622 | 0.528 | – | – | – | –
– | CN(C)c1ccc(/C=C/C=C2\C(=O)N(Cc3ccccc3)c3ncccc32)cc1 (mixture of isomers) | 0.0851 | 0.0683 | 0.257 | – | – | – | –
– | CN(C)c1ccc(/C=C/C=C2\C(=O)N(Cc3ccc(N)cc3)c3ccccc32)cc1 (mixture of isomers) | 0.0989 | 0.0436 | 0.131 | – | – | – | –
– | CN(C)c1ccc(/C=C2\C(=O)N(Cc3ccccc3)c3ncccc32)cc1 (mixture of isomers) | 0.19 | 0.35 | 0.859 | – | – | – | –
– | Nc1ccc(/C=C/C=C2\C(=O)Nc3ccccc32)cc1 (mixture of isomers) | 0.0508 | 0.0448 | 0.0383 | – | – | – | –
– | CN(C)c1ccc(/C=C/C=C2\C(=O)N(c3ccccc3)c3ccccc32)cc1 (mixture of isomers) | 0.287 | 0.0681 | 0.465 | – | – | – | –
– | CN(C)c1ccc(/C=C/C=C2\C(=O)N(Cc3ccccc3)c3ccccc32)cc1 (mixture of isomers) | 0.358 | 0.0409 | 0.374 | – | – | – | –
– | CN(C)c1ccc(/C=C2\C(=O)N(c3ccccc3)c3ccccc32)cc1 (mixture of isomers) | 0.179 | 0.29 | 0.79 | – | – | – | –
– | COc1ccc(CN2C(=O)/C(=C\c3ccc(N(C)C)cc3)c3cccnc32)cc1 (mixture of isomers) | 0.113 | 0.0795 | 0.853 | – | – | – | –
– | O=C1Nc2ccccc2/C1=C\C=C\c1ccc([N+](=O)[O-])cc1 | 0.06 | 0.211 | 0.209 | – | – | – | –
– | CN(C)c1ccc(/C=C2\C(=O)Nc3ccc(O)cc32)cc1 (mixture of isomers) | 0.0948 | 0.407 | 0.212 | – | – | – | –
Active | CN(C)c1ccc(/C=C/C=C2\C(=O)Nc3ccccc32)cc1 (mixture of isomers) | 0.0276 | 0.0407 | 0.0537 | – | – | – | –
– | O=C1/C(=C\c2ccc([N+](=O)[O-])cc2)c2ccccc2N1Cc1ccccc1 | 0.46 | 0.483 | 1.76 | – | – | – | –
– | CCOC(=O)N1C(=O)/C(=C\c2ccc(N(C)C)cc2)c2ccccc21 (mixture of isomers) | 0.14 | 0.343 | 1.12 | – | – | – | –
– | O=C1/C(=C/C=C/c2ccc([N+](=O)[O-])cc2)c2ccccc2N1Cc1ccc(OCCF)cc1 | 0.125 | 0.0761 | 0.456 | – | – | – | –
– | O=C1Nc2ccccc2/C1=C/C=C/c1ccccc1 (mixture of isomers) | 0.267 | 0.207 | 0.522 | – | – | – | –
– | COc1ccc(/C=C/C=C2\C(=O)Nc3ccccc32)cc1 (mixture of isomers) | 0.126 | 0.0611 | 0.169 | – | – | – | –
– | O=C1Nc2ccccc2/C1=C/C=C/c1ccc([N+](=O)[O-])cc1 | 0.0362 | 0.0146 | 0.0271 | – | – | – | –
– | CN(C)c1ccc(/C=C2\C(=O)N(C)c3ccccc32)cc1 (mixture of isomers) | 0.155 | 0.508 | 0.618 | – | – | – | –
– | O=C1/C(=C/C=C/c2ccc([N+](=O)[O-])cc2)c2ccccc2N1Cc1ccccc1 | 0.235 | 0.193 | 0.591 | – | – | – | –
– | COc1cccc(CN2C(=O)/C(=C\C=C\c3ccc([N+](=O)[O-])cc3)c3ccccc32)c1 | 0.11 | 0.0038 | 0.229 | – | – | – | –
– | COc1ccc(CN2C(=O)/C(=C\C=C\c3ccc([N+](=O)[O-])cc3)c3ccccc32)cc1OC | 0.0736 | 0.0035 | 0.152 | – | – | – | –

Activity [4] | Structure (SMILES) | Ki [1] [µM] | Ki (Alpha-synuclein [2]) [µM] | Ki [3] [µM] | Kd [5] [µM] | Kd (Alpha-synuclein [6]) [µM] | Kd [7] [µM] | logP [8]
– | CN(C)c1ccc(/C=C/C=C2\C(=O)Nc3ncccc32)cc1 (mixture of isomers) | 0.0153 | 0.0115 | 0.0351 | – | – | – | –
– | COc1ccc(CN2C(=O)/C(=C\c3ccc(N(C)C)cc3)c3ccccc32)cc1 (mixture of isomers) | 0.251 | 0.114 | 0.432 | – | – | – | –
– | COc1ccc(CN2C(=O)/C(=C\C=C\c3ccc([N+](=O)[O-])cc3)c3ccccc32)cc1 | 0.131 | 0.0129 | 0.0724 | – | – | – | –
– | COc1ccc(/C=C/C=C2\C(=O)N(Cc3ccccc3)c3ccccc32)cc1 (mixture of isomers) | 0.741 | 0.0725 | 0.718 | – | – | – | –
– | CN(C)c1ccc(/C=C2\C(=O)Nc3ccccc32)cc1 (mixture of isomers) | 0.0916 | 0.0844 | 0.261 | – | – | – | –
– | COc1ccc(CN2C(=O)/C(=C\C=C\c3ccc(N(C)C)cc3)c3ccccc32)cc1 (mixture of isomers) | 0.13 | 0.0546 | 0.24 | – | – | – | –
– | COc1ccc(CN2C(=O)/C(=C\C=C\c3ccc(N(C)C)cc3)c3cccnc32)cc1 (mixture of isomers) | 0.107 | 0.0298 | 0.204 | – | – | – | –
– | O=C1/C(=C\C=C\c2ccc([N+](=O)[O-])cc2)c2ccccc2N1Cc1ccc(OCC[18F])cc1 | – | – | – | 0.271 | 0.0089 | 0.05 | –
– | COc1cccc(CN2C(=O)/C(=C/C=C/c3ccc([N+](=O)[O-])cc3)c3ccccc32)c1 | 0.265 | 0.0647 | 0.355 | – | – | – | –
– | COc1ccc(CN2C(=O)/C(=C/C=C/c3ccc([N+](=O)[O-])cc3)c3ccccc32)cc1OC | 0.13 | 0.0533 | 0.63 | – | – | – | –
– | CN(C)c1ccc(/C=C2\C(=O)N(Cc3ccncc3)c3ccccc32)cc1 | – | 0.15 | 0.364 | – | – | – | –
– | CCOC(=O)N1C(=O)/C(=C\C=C\c2ccc(N(C)C)cc2)c2ccccc21 (mixture of isomers) | 0.084 | 0.0453 | 0.263 | – | – | – | –
– | CN(C)c1ccc(/C=C/C=C2\C(=O)N(Cc3ccncc3)c3ccccc32)cc1 | – | 0.092 | 0.188 | – | – | – | –
– | O=C1/C(=C\C=C\c2ccccc2)c2ccccc2N1Cc1ccccc1 (mixture of isomers) | 0.703 | 0.227 | 0.682 | – | – | – | –
– | CN(C)c1ccc(/C=C2\C(=O)N(Cc3ccccc3)c3ccccc32)cc1 | 0.26 | 0.144 | 0.798 | – | – | – | –
– | CN(C)c1ccc(/C=C/C=C2\C(=O)N(C)c3ccccc32)cc1 (mixture of isomers) | 0.056 | 0.0637 | 0.229 | – | – | – | –
– | CN(C)c1ccc(/C=C/C=C2\C(=O)N(Cc3ccc([N+](=O)[O-])cc3)c3ccccc32)cc1 (mixture of isomers) | 0.0924 | 0.0042 | 0.09 | – | – | – | –
– | O=C1/C(=C\C=C\c2ccc([N+](=O)[O-])cc2)c2ccccc2N1Cc1ccccc1 | 0.214 | 0.025 | 0.121 | – | – | – | –
– | CN(C)c1ccc(/C=C2\C(=O)Nc3ncccc32)cc1 (mixture of isomers) | 0.04 | 0.124 | 0.191 | – | – | – | –
– | COc1ccc(CN2C(=O)/C(=C/C=C/c3ccc([N+](=O)[O-])cc3)c3ccccc32)cc1 | 0.139 | 0.0819 | 0.318 | – | – | – | –
– | O=C1Nc2ccccc2/C1=C/c1ccc([N+](=O)[O-])cc1 | 0.325 | 0.347 | 0.362 | – | – | – | –
– | CN(C)c1ccc(/C=C/C=C2\C(=O)Nc3ccc(O)cc32)cc1 (mixture of isomers) | 0.0371 | 0.054 | 0.048 | – | – | – | –
– | O=C1/C(=C\C=C\c2ccc([N+](=O)[O-])cc2)c2ccccc2N1Cc1ccc(OCCF)cc1 | 0.142 | 0.0021 | 0.0801 | – | – | – | 4.18
